Experiments:
Format in all cases: cell-based
[1] = biological target: T1, human TLR8 (Homo sapiens, UniProt Q9NR97); experiment: TLR8 inhibition reporter assay (HEK-Blue SEAP); conditions: HEK-Blue cells overexpressing human TLR8, stimulated with R848 15.9 μM, 22 hour incubation
T1 construct: host or cells: HEK-Blue cells
T1 sequence (Q9NR97 27-1041): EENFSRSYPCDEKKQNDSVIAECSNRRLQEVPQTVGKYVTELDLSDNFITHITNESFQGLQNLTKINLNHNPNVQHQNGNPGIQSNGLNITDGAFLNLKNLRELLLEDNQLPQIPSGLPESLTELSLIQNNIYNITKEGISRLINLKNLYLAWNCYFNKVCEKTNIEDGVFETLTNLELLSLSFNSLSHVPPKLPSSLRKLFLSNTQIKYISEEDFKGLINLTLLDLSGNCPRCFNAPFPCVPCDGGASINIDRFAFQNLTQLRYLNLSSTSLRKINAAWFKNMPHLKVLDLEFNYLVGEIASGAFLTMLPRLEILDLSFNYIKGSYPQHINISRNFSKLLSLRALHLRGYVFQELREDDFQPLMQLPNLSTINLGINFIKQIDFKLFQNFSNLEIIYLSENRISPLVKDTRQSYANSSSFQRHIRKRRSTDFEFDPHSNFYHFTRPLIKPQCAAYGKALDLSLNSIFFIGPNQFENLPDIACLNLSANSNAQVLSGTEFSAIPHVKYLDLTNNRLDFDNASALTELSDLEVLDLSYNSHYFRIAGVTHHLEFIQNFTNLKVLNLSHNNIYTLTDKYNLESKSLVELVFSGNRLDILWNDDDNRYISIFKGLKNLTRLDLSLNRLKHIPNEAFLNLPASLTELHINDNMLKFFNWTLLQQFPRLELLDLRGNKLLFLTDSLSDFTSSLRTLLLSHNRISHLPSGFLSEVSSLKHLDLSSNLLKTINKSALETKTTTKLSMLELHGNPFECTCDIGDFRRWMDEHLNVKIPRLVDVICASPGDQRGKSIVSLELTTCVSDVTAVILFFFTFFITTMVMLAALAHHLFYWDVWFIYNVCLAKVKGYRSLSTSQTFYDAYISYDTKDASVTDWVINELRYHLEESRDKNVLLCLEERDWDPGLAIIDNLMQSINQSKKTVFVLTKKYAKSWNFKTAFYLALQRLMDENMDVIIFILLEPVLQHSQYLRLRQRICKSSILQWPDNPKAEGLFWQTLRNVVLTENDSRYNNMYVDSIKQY
Description: (§1) TLR7/8/9 Inhibition Reporter Assays
(§2) HEK-Blue™-cells (Invivogen) overexpressing human TLR7, TLR8 or TLR9 receptors were used for screening inhibitors of these receptors using an inducible SEAP (secreted embryonic alkaline phosphatase) reporter gene under the control of the IFN-β minimal promoter fused to five NF-κB and AP-1-binding sites. Briefly, cells are seeded into Greiner 384 well plates (15000 cells per well for TLR7, 20.000 for TLR8 and 25,000 for TLR9) and then treated with test compounds in DMSO to yield a final dose response concentration range of 0.05 nM-50 μM. After a 30 minute compound pre-treatment at room temperature, the cells are then stimulated with a TLR7 ligand (gardiquimod at a final concentration of 7.5 μM), TLR8 ligand (R848 at a final concentration of 15.9 μM) or TLR9 ligand (ODN2006 at a final concentration of 5 nM) to activate NF-κB and AP-1 which induce the production of SEAP. After a 22 hour incubation at 37° C., 5% CO2, SEAP levels are determined with the addition of HEK-Blue™ Detection reagent (Invivogen), a cell culture medium that allows for detection of SEAP, according to manufacturer's specifications. The percent inhibition is determined as the % reduction in the HEK-Blue signal present in wells treated with agonist plus DMSO alone compared to wells treated with a known inhibitor.

[2] = biological target: T2, human TLR9 (Homo sapiens, UniProt Q9NR96); experiment: TLR9 inhibition reporter assay (HEK-Blue SEAP); conditions: HEK-Blue cells overexpressing human TLR9, stimulated with ODN2006 5 nM, 22 hour incubation
T2 construct: host or cells: HEK-Blue cells
T2 sequence (Q9NR96 26-1032): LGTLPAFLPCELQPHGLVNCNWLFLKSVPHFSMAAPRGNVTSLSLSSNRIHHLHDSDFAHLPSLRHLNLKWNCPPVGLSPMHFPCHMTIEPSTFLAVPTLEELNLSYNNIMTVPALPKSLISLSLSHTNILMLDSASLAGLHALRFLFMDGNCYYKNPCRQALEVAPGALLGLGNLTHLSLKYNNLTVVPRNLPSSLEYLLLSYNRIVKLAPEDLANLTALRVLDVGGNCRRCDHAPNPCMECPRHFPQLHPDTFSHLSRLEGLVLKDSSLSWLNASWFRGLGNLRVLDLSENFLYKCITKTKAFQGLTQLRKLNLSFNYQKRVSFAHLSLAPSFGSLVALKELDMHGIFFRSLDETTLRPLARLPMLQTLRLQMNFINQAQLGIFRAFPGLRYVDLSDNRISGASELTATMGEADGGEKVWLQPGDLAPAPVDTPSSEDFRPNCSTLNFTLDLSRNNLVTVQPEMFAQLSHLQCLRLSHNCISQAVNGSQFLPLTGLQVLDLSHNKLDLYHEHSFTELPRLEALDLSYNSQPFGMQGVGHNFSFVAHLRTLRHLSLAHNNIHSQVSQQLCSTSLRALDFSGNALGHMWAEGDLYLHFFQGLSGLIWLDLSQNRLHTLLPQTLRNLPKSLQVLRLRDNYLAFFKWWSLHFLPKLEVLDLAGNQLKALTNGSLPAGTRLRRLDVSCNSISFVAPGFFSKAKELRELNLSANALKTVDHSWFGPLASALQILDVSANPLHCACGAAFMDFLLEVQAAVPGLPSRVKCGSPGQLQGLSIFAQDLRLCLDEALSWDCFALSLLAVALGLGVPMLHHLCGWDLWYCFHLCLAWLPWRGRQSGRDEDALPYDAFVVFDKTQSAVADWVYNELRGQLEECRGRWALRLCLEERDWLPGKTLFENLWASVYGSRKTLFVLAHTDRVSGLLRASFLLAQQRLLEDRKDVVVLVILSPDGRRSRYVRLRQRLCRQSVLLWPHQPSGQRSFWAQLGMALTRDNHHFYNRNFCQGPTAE
Description: as §1, §2

[3] = biological target: T3, human TLR7 (Homo sapiens, UniProt Q9NYK1); experiment: TLR7 inhibition reporter assay (HEK-Blue SEAP); conditions: HEK-Blue cells overexpressing human TLR7, stimulated with gardiquimod 7.5 μM, 22 hour incubation
T3 construct: host or cells: HEK-Blue cells
T3 sequence (Q9NYK1 27-1049): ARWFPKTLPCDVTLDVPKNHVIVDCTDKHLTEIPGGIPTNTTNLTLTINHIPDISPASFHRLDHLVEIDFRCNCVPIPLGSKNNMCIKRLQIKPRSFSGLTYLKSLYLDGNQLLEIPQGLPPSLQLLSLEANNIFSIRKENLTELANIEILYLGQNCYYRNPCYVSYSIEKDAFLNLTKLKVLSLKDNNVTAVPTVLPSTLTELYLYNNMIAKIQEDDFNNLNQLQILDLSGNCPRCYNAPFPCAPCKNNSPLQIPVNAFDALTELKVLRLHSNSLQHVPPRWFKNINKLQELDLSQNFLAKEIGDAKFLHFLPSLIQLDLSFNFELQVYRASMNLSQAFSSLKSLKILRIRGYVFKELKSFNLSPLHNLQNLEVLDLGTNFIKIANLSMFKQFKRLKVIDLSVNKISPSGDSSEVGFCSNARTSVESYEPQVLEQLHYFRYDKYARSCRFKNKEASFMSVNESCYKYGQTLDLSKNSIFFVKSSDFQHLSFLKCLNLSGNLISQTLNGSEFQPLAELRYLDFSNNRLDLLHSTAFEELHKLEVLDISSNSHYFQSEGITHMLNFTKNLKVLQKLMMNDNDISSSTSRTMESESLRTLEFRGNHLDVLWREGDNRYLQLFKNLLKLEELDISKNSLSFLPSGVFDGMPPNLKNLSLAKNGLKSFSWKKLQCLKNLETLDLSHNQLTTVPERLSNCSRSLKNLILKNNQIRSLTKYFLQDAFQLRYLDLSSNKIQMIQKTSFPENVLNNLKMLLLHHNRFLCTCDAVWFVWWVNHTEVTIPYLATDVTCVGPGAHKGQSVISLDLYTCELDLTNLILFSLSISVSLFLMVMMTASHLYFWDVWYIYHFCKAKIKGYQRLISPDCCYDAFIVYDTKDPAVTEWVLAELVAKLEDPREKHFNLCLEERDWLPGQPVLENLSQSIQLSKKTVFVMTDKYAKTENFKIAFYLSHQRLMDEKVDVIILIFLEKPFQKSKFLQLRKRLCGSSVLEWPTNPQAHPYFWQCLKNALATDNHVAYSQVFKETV
Description: as §1, §2

IC50 [1]	IC50 [2]	IC50 [3]	SMILES
14 nM	11500 nM	115 nM	Cc1cc(-c2[nH]c3ccc(OCC4CCN(CC(C)(C)O)CC4)cc3c2C(C)C)cn(C)c1=O [Example 25, 5-(5-((1-(2-hydroxy-2-methylpropyl)piperidin-4-yl)methoxy)-3-isopropyl-1H-indol-2-yl)-1,3-dimethylpyridin-2(1H)-one]
3.5 nM	3160 nM	1.1 nM	Cc1cc(-c2[nH]c3ccc(OCC4CN(CC(C)(C)O)C4)cc3c2C(C)C)cn2ncnc12 [Example 26, 1-(3-(((3-isopropyl-2-(8-methyl-[1,2,4]triazolo[1,5-a]pyridin-6-yl)-1H-indol-5-yl)oxy)methyl)azetidin-1-yl)-2-methylpropan-2-ol]
1.7 nM	1750 nM	0.5 nM	Cc1cc(-c2[nH]c3ccc(OCC4CCN(CC(C)(C)O)CC4)cc3c2C(C)C)cn2ncnc12 [Example 27, 1-(4-(((3-isopropyl-2-(8-methyl-[1,2,4]triazolo[1,5-a]pyridin-6-yl)-1H-indol-5-yl)oxy)methyl)piperidin-1-yl)-2-methylpropan-2-ol]
21.7 nM	1250 nM	6.1 nM	Cc1c(-c2[nH]c3ccc(OCC4CN(CC(C)(C)O)C4)cc3c2C(C)C)cn2cnnc2c1C [Example 28, 1-(3-(((2-(7,8-dimethyl-[1,2,4]triazolo[4,3-a]pyridin-6-yl)-3-isopropyl-1H-indol-5-yl)oxy)methyl)azetidin-1-yl)-2-methylpropan-2-ol]
0.7 nM	379 nM	1.3 nM	Cc1cc(-c2[nH]c3ccc(OC4CCN(C)CC4)cc3c2C(C)C)cc(C)n1 [Example 29, 2-(2,6-dimethylpyridin-4-yl)-3-isopropyl-5-((1-methylpiperidin-4-yl)oxy)-1H-indole]
2.6 nM	304 nM	2.3 nM	Cc1cc(-c2[nH]c3ccc(OCC4CCCN(C)C4)cc3c2C(C)C)cc(C)n1 (stereo not drawn) [Example 30, 2-(2,6-dimethylpyridin-4-yl)-3-isopropyl-5-((1-methylpiperidin-3-yl)methoxy)-1H-indole]

Continued, compound first:

SMILES	IC50 [1]	IC50 [2]	IC50 [3]
Cc1cc(-c2[nH]c3ccc(OC4CCNCC4)cc3c2C(C)C)cn2ncnc12 [Example 10, 6-(3-isopropyl-5-(piperidin-4-yloxy)-1H-indol-2-yl)-8-methyl-[1,2,4]triazolo[1,5-a] pyridine]	1.6 nM	653 nM	0.6 nM
Cc1cc(-c2[nH]c3ccc(OC4CCNCC4)cc3c2C(C)C)cn(C)c1=O [Example 11, 5-(3-isopropyl-5-(piperidin-4-yloxy)-1H-indol-2-yl)-1,3-dimethylpyridin-2(1H)-one]	2.1 nM	1920 nM	2.8 nM
Cc1cc(-c2[nH]c3ccc(OCC4CCNCC4)cc3c2C(C)C)cn2ncnc12 [Example 12, 6-(3-isopropyl-5-(piperidin-4-ylmethoxy)-1H-indol-2-yl)-8-methyl-[1,2,4] triazolo[1,5-a]pyridine]	3 nM	1100 nM	0.3 nM
Cc1cc(-c2[nH]c3ccc(OC4CCN(CC(C)(C)O)CC4)cc3c2C(C)C)cc(C)n1 [Example 21, 1-(4-((2-(2,6-dimethylpyridin-4-yl)-3-isopropyl-1H-indol-5-yl)oxy)piperidin-1-yl)-2-methylpropan-2-ol]	1.1 nM	518 nM	3.6 nM
Cc1cc(-c2[nH]c3ccc(OC4CCN(CC(C)(C)O)CC4)cc3c2C(C)C)cn2ncnc12 [Example 22, 1-(4-((3-isopropyl-2-(8-methyl-[1,2,4]triazolo[1,5-a]pyridin-6-yl)-1H-indol-5-yl)oxy)piperidin-1-yl)-2-methylpropan-2-ol]	9.2 nM	4410 nM	6.3 nM
Cc1cc(-c2[nH]c3ccc(OCC4CCCN(CC(C)(C)O)C4)cc3c2C(C)C)cc(C)n1 (stereo not drawn) [Example 23, 1-(3-(((2-(2,6-dimethylpyridin-4-yl)-3-isopropyl-1H-indol-5-yl)oxy)methyl)piperidin-1-yl)-2-methylpropan-2-ol]	4.4 nM	557 nM	9.6 nM
Cc1cc(-c2[nH]c3ccc(OCC4CCN(CC(C)(C)O)CC4)cc3c2C(C)C)cc(C)n1 [Example 24, 1-(4-(((2-(2,6-dimethylpyridin-4-yl)-3-isopropyl-1H-indol-5-yl)oxy)methyl)piperidin-1-yl)-2-methylpropan-2-ol]	3 nM	300 nM	4.3 nM

Source: patent US12030878B2 (BRISTOL-MYERS SQUIBB COMPANY, priority 2017, dated 2024)
